# Reference: patent US20230331720A1, “MEDIUM- OR MACRO-CYCLIC BENZYL-SUBSTITUTED HETEROCYCLE DERIVATIVES AND THEIR USES AS OREXIN-2 RECEPTOR AGONISTS” (Orexia Therapeutics Limited, priority 2020, published 2023)
# Target: T1, human orexin type 2 receptor (hOX2R) (Homo sapiens, UniProt O43614)
# T1 construct: expressed in transfected cells
# T1 sequence (O43614 1-444): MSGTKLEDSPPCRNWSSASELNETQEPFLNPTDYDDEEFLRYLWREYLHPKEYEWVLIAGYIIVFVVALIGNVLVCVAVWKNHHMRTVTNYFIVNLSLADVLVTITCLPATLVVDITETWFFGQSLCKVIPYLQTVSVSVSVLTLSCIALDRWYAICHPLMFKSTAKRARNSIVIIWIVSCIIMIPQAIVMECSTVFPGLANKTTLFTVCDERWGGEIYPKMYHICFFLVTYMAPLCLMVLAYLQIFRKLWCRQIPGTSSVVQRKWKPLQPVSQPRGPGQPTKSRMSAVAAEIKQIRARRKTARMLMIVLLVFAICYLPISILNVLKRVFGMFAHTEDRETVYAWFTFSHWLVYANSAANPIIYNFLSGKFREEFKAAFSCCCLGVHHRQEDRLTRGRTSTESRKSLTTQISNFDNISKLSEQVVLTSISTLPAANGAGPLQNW
# Assay: Orexin type 2 receptor agonist activity, intracellular Ca2+ (FLIPR TETRA)
# Assay type: cell-based
# Conditions: CHO cells expressing hOX2R; Ca2+ fluorescence area; read-out: hOx2 pEC50 (converted)
# Experimental: Stable cell line generation. Obtainment of cells stably expressing either human orexin type 2 or human orexin type 1 receptor; to obtain a stable cell line the Orexin receptor cDNA was inserted into pcDNA3.1(+) plasmid vector and clones identified by G418 drug resistance selection. […] A single clone for OX2R-CHO and OX1R-CHO were grown in bulk and frozen to generate a cell bank for routine screening.
# Measurement of orexin type 2 receptor agonist activity. Chinese hamster ovary (CHO) cells expressing human orexin type 2 receptor (hOX2R) or human orexin type 1 receptor (hOX1R) were seeded in each well of 384 well black clear bottom plates (BD Flacon) at 10,000 cells per well and cultured for 24 hr in an Ham's F12 (Gibco) medium containing 10% fetal calf serum (Sigma Aldrich) under the conditions of 37° C., 5% CO2. After removal of the medium, 50 μl of assay buffer 1 (0.1% bovine serum albumin (Sigma Aldrich), 20 mM HEPES (Molecular Dimensions), […] probenecid (Sigma Aldrich), 1× Calcium 5 dye (Molecular Devices) in Hank's balanced salt solution (Invitrogen)) was added, and the cells were incubated for 60 min under the conditions of 37° C., 5% CO2. A test compound was dissolved in dimethyl sulfoxide (Sigma Aldrich) to 10 mM, and then diluted with assay buffer 2 (20 mM HEPES, Hank's balanced salt solution, 0.1% bovine serum albumin). For the reaction, a test compound solution (10 μl) was added using Fluorescent Imaging Plate Reader TETRA (FLIPR TETRA: manufactured by Molecular Devices), a fluorescence value (excitation wavelength 488 nm, measurement wavelength 570 nm) of each well was measured every one second for 2 min, and the agonist activity was determined using the area of the fluorescence value as an indicator of intracellular Ca^2+ concentration. The agonist activity of the test compound was calculated assuming that the fluorescence value of the well added with only the dilution buffer was 0% and the fluorescence value of the well added with 10 nM human orexin A (Tocris) buffer was 100%. As used herein, Emax indicates the value at 10 μM concentration when orexin A is converted to a full agonist (maximum value of agonist activity: 100%).
row,EC50 [nM],SMILES
1,100 to 1000,"CCS(=O)(=O)NC1CCN2C(=O)CCC/C=C/c3ccccc3-c3cccc(c3)CC12 (mixture of isomers) [Compound A1-36, (E/Z)—N-(5-oxo-4(2,1)-pyrrolidina-1(1,2),2(1,3)-dibenzenacyclodecaphan-9-en-4^3-yl)ethanesulfonamide]"
2,100 to 1000,"CS(=O)(=O)NC1CCCN2C(=O)CCCCc3ccccc3-c3cccc(c3)CC12 (racemic) [Compound A1-1, N-(5-oxo-4(2,1)-piperidina-1(1,2),2(1,3)-dibenzenacyclononaphane-4^3-yl)-methanesulfonamide]"
3,100 to 1000,"CN1CCOc2ccccc2-c2cccc(c2)CC2C(NS(C)(=O)=O)CCCN2C1=O (racemic) [Compound A1-2, N-(6-methyl-5-oxo-9-oxa-6-aza-4(2,1)-piperidina-1(1,2),2(1,3)-dibenzena-cyclo-nonaphane-4^3-yl)methanesulfonamide]"
4,10 to 100,"CS(=O)(=O)N[C@@H]1CCCN2C(=O)CCCOc3ccccc3-c3cccc(c3)C[C@H]12 (racemic) [Compound A1-6, N-(5-oxo-9-oxa-4(2,1)-piperidina-1(1,2),2(1,3)-dibenzenacyclononaphane-4^3-yl)methanesulfonamide]"
5,10 to 100,"CS(=O)(=O)NC1CCN2C(=O)N3CC(CCc4ccccc4-c4cccc(c4)CC12)C3 (racemic) [Compound A1-13, N-(5-oxo-4-(2,1)-pyrrolidina-6-(1.3)-azetidina-1-(1,2),2-(1,3)-dibenzena-cyclooctaphane-4^3-yl)methanesulfonamide]"
6,10 to 100,"CS(=O)(=O)NC1CCN2C(=O)N3CC(CCCc4ccccc4-c4cccc(c4)CC12)C3 (racemic) [Compound A1-14, N-(5-oxo-4(2,1)-pyrrolidina-6(1,3)-azetidina-1(1,2),2(1,3)-dibenzenacyclo-nonaphane-4^3-yl)methanesulfonamide]"
7,1 to 10,"CS(=O)(=O)NC1CCCN2C(=O)NCCOc3ccccc3-c3cccc(c3)CC12 (racemic) [Compound A1-15, N-(5-oxo-9-oxa-6-aza-4(2,1)-piperidina-1(1,2),2(1,3)-dibenzenacyclo-nonaphane-4^3-yl)methanesulfonamide]"
8,10 to 100,"CCS(=O)(=O)NC1CCN2C(=O)NCCCCCc3c(F)cc(F)cc3-c3cccc(c3)CC12 (racemic) [Compound A1-16, N-(1^3,1^5-difluoro-5-oxo-6-aza-4(2,1)-pyrrolidina-1-(1,2),2-(1,3)-dibenzena-cycloundecaphane-4^3-yl)ethanesulfonamide]"
9,1 to 10,"CCS(=O)(=O)NC1CCN2C(=O)N(C)CCCCCc3ccccc3-c3cccc(c3)CC12 (racemic) [Compound A1-18, N-(6-methyl-5-oxo-6-aza-4(2,1)-pyrrolidina-1(1,2),2(1,3)-dibenzenacyclo-undecaphane-43-yl)ethanesulfonamide]"
10,100 to 1000,"CCS(=O)(=O)NC1CCN2C(=O)CCCc3ccccc3-c3cccc(c3)CC12 (racemic) [Compound A1-19, N-(5-oxo-4(2,1)-pyrrolidina-1(1,2),2(1,3)-dibenzenacyclooctaphane-4^3-yl)ethanesulfonamide]"
11,100 to 1000,"CCS(=O)(=O)NC1CCN2C(=O)CCOCCCc3ccccc3-c3cccc(c3)CC12 (racemic) [Compound A1-20, N-(5-oxo-8-oxa-4(2,1)-pyrrolidina-1(1,2),2(1,3)-dibenzenacyclo-undecaphane-4^3-yl)ethanesulfonamide]"
12,100 to 1000,"CCS(=O)(=O)NC1CCN2C(=O)CC/C=C\c3ccccc3-c3cccc(c3)CC12 (racemic) [Compound A1-26, (E/Z)—N-(5-oxo-4(2,1)-pyrrolidina-1(1,2),2(1,3)-dibenzenacyclononaphan-8-en-4^3-yl)ethanesulfonamide]"
13,1 to 10,"CS(=O)(=O)NC1CCCN2C(=O)NCCCCCc3ccccc3-c3cccc(c3)CC12 (racemic) [Compound A1-27, N-(5-oxo-6-aza-4(2,1)-piperidina-1(1,2),2(1.3)-dibenzenacyclo-undecaphane-4^3-yl)methanesulfonamide]"
14,10 to 100,"CS(=O)(=O)NC1CCCN2C(=O)CCCCCCc3ccccc3-c3cccc(c3)CC12 (racemic) [Compound A1-28, N-(5-oxo-4(2,1)-piperidina-1(1,2),2(1,3)-dibenzenacycloundecaphane-4^3-yl)methanesulfonamide]"
15,100 to 1000,"CCS(=O)(=O)NC1CCN2C(=O)CCCCCCc3c(F)cc(F)cc3-c3cccc(c3)CC12 (racemic) [Compound A1-29, N-(1^3,1^5-difluoro-5-oxo-4(2,1)-pyrrolidina-1(1,2),2(1,3)-dibenzenacyclo-undecaphane-4^3-yl)ethanesulfonamide]"
16,10 to 100,"CCS(=O)(=O)NC1CCN2C(=O)NCCOc3ccccc3-c3cccc(c3)CC12 (racemic) [Compound A1-30, N-(5-oxo-9-oxa-6-aza-4(2,1)-pyrrolidina-1(1,2),2(1,3)-dibenzenacyclo-nonaphane-4^3-yl)ethanesulfonamide]"
17,100 to 1000,"CCS(=O)(=O)NC1CCN2C(=O)CCCOc3ccccc3-c3cccc(c3)CC12 (racemic) [Compound A1-31, N-(5-oxo-9-oxa-4(2,1)-pyrrolidina-1(1.2),2(1,3)-dibenzenacyclo-nonaphane-4^3-yl)ethanesulfonamide]"
18,1 to 10,"CCS(=O)(=O)NC1CCN2C(=O)CCCCCCc3ccccc3-c3cccc(c3)CC12 (racemic) [Compound A1-39, N-(5-oxo-4(2,1)-pyrrolidina-1(1,2),2(1,3)-dibenzenacycloundecaphane-4^3-yl)ethanesulfonamide]"
19,10 to 100,"CCS(=O)(=O)NC1CCN2C(=O)CCC/C=C/Cc3ccccc3-c3cccc(c3)CC12 (racemic) [Compound A1-41, (E/Z)—N-(5-oxo-4(2,1)-pyrrolidina-1(1.2),2(1,3)-dibenzenacyclo-undecaphan-9-en-4^3-yl)ethanesulfonamide]"
20,10 to 100,"CCS(=O)(=O)NC1CCN2C(=O)CCCCCc3ccccc3-c3cccc(c3)CC12 (racemic) [Compound A1-48, N-(5-oxo-4(2,1)-pyrrolidina-1(1,2),2(1,3)-dibenzenacyclodecaphane-4^3-yl)ethanesulfonamide]"
21,10 to 100,"CCS(=O)(=O)NC1CCN2C(=O)NCCCCc3ccccc3-c3cccc(c3)CC12 (racemic) [Compound A1-49, N-(5-oxo-6-aza-4(2,1)-pyrrolidina-1(1,2),2(1,3)-dibenzenacyclodecaphane-4^3-yl)ethanesulfonamide]"
22,1 to 10,"CCS(=O)(=O)NC1CCN2C(=O)NCCCCCc3ccccc3-c3cccc(c3)CC12 (racemic) [Compound A1-50, N-(5-oxo-6-aza-4(2,1)-pyrrolidina-1(1,2),2(1,3)-dibenzenacyclo-undecaphane-43-yl)ethanesulfonamide]"
23,10 to 100,"CCS(=O)(=O)NC1CCN2C(=O)NC/C=C/Cc3ccccc3-c3cccc(c3)CC12 (racemic) [Compound A1-51, (E/Z)—N-(5-oxo-6-aza-4(2,1)-pyrrolidina-1(1,2),2(1.3)-dibenzenacyclo-decaphan-8-en4^3-yl)ethanesulfonamide]"
24,1 to 10,"CCS(=O)(=O)NC1CCN2C(=O)NCC/C=C/Cc3ccccc3-c3cccc(c3)CC12 (racemic) [Compound A1-52, (E/Z)—N-(5-oxo-6-aza-4(2,1)-pyrrolidina-1(1,2),2(1.3)-dibenzenacyclo-undecaphan-9-en-43-yl)ethanesulfonamide]"
